# Values quoted from earlier work, collected in patent US20070116750A1, “Compositions for disrupting and inhibiting reconstitution of wound biofilm” (priority 2005, published 2007).
# Test system: established biofilm
# Conditions: applied at full strength to an established biofilm
smiles,measurement,value
OCl [sodium hypochlorite],biofilm killed,50%
